Measurements reported in patent US20220089589A1, “SMALL MOLECULE DEGRADERS OF FKBP12 VIA RECRUITMENT OF VON HIPPEL-LINDAU E3 UBIQUITIN LIGASE (VHL) E3 UBIQUITIN LIGASE, AND USES IN dTAG SYSTEMS” (DANA-FARBER CANCER INSTITUTE, INC., priority 2019, published 2022).
Entries after “also recorded” stand apart in the source; their conditions may differ.

Key:
Type in all cases: cell-based
control NIH/3T3 cells = assay: Anti-proliferation in mock transduced (control) NIH/3T3 cells by ATPlite assay; details: 0.00063-20 μM, 72 hrs, at high doses
Procedure: (§1) NIH/3T3 cells, that were mock transduced (control) or stably expressing with FKBP12^F36V-KRAS^G12V, were plated in 384-well format, allowed to adhere overnight, and treated with various dTAG molecules from compound stock plates using a JANUS® Workstation pin tool for 72 hrs. To measure cell viability, ATPlite™ was added to wells for 15 minutes at room temperature and luminescence was measured on an EnVision™ 2104 Multilabel Plate Reader.

[1] = tested on: NIH/3T3 cells expressing FKBP12^F36V-KRAS^G12V; assay: Anti-proliferation in NIH/3T3 cells expressing FKBP12^F36V-KRAS^G12V by ATPlite assay; details: 0.00063-20 μM, 72 hrs, NIH/3T3 expressing FKBP12^F36V-KRAS^G12V
Procedure: as §1

[2] = tested on: PATU-8902 FKBP12^F36V-KRAS^G12V; KRAS^−/− clone; assay: Anti-proliferation via CellTiter-Glo, PATU-8902 FKBP12^F36V-KRAS^G12V; KRAS^−/− clone (Example 11); details: 0.00063-20 μM, 72 hrs
Procedure: (§2) PATU-8902 LACZ-FKBP12^F36V or FKBP12^F36V-KRAS^G12V; KRAS^−/− clones were plated in 384-well format, allowed to adhere overnight, and treated with various dTAG molecules from compound stock plates using a JANUS® Workstation pin tool for 72 hrs. To measure cell viability, CellTilter-Glo® was added to wells for 15 minutes at r.t. and luminescence was measured on an EnVision™ 2104 Multilabel Plate Reader.

[3] = tested on: PATU-8902 LACZ-FKBP12^F36V clone; assay: Anti-proliferation via CellTiter-Glo, PATU-8902 LACZ-FKBP12^F36V control clone (Example 11); details: 0.00063-20 μM, 72 hrs
Procedure: as §2

[4] = tested on: PATU-8902 FKBP12^F36V-KRAS^G12V; KRAS^−/− clone; assay: Cell transformation by growth in ultra-low attachment conditions, PATU-8902 FKBP12^F36V-KRAS^G12V; KRAS^−/− clone (Example 13); details: 0.000063-2 μM, 120 hrs
Procedure: as §2, with “format in ultra-low attachment conditions,” for “format,”, “form 3D-spheroids” for “adhere”, “120” for “72”, “transformation, Cell Tilter-Glo®” for “viability, CellTilter-Glo®”, “room temperature” for “r.t.”

pERK = assay: Immunoblotting of PATU-8902 FKBP12^F36V-KRAS^G12V; KRAS^−/− clone (Example 8), ERK signaling; details: 50 or 500 nM, 4 hrs
Procedure: (§3) PATU-8902 FKBP12^F36V-KRAS^G12V; KRAS^−/− clone was plated in 6-well format, allowed to adhere overnight, and treated with 50 nM and 500 nM dTAG molecules for 4 hrs. Following treatment, cells were lysed in RIPA buffer on ice for 60 minutes. Lysates were clarified by centrifugation at 20,000×g for 10 minutes at 4° C. Immunoblotting was performed to determine changes in protein levels with an Odyssey CLx Imager. The indicated antibodies were employed including HA to monitor FKBP12^F36V-KRAS^G12V degradation, total and phosphorylated ERK to evaluate changes in ERK signaling, total and phosphorylated AKT to evaluate changes in AKT signaling and α-TUBULIN as a loading control.

pAKT = assay: Immunoblotting of PATU-8902 FKBP12^F36V-KRAS^G12V; KRAS^−/− clone (Example 8), AKT signaling; details: 50 or 500 nM, 4 hrs
Procedure: as §3

LACZ-FKBP12^F36V = assay: Immunoblotting of PATU-8902 LACZ-FKBP12^F36V clone (Example 6); details: 50 or 500 nM, 4 hrs
Procedure: as §3, with “LACZ-FKBP12^F36V” for “FKBP12^F36V-KRAS^G12V; KRAS^−/−”, “HA (hemagglutinin)” for “HA”, “LACZ-FKBP12^F36V degradation” for “FKBP12^F36V-KRAS^G12V degradation, total and phosphorylated ERK to evaluate changes in ERK signaling, total and phosphorylated AKT to evaluate changes in AKT signaling”

FKBP12^F36V-KRAS^G12V [5] = assay: Immunoblotting of PATU-8902 FKBP12^F36V-KRAS^G12V; KRAS^−/− clone (Example 8), HA; details: 50 or 500 nM, 4 hrs
Procedure: as §3

[6] = tested on: PATU-8902 FKBP12^F36V-KRAS^G12V; KRAS^−/− clone; assay: Anti-proliferation via CellTiter-Glo, PATU-8902 FKBP12^F36V-KRAS^G12V; KRAS^−/− clone (Example 12); details: 0.000063-2 μM, 72 hrs
Procedure: as §2, with “Cell Tilter-Glo®” for “CellTilter-Glo®”

[7] = tested on: PATU-8902 LACZ-FKBP12^F36V clone; assay: Cell transformation by growth in ultra-low attachment conditions, PATU-8902 LACZ-FKBP12^F36V control clone (Example 13); details: 0.000063-2 μM, 120 hrs
Procedure: as §2, with “format in ultra-low attachment conditions,” for “format,”, “form 3D-spheroids” for “adhere”, “120” for “72”, “transformation, Cell Tilter-Glo®” for “viability, CellTilter-Glo®”, “room temperature” for “r.t.”

FKBP12^F36V-GFP = assay: Immunoblotting of EWS502 FKBP12^F36V-GFP cells; details: dTAG-13 10-5000 nM, compound 1 50-5000 nM, 24 hrs
Procedure: (§4) EWS502 FKBP12^F36V-GFP and FKBP12^F36V-EWS/FLI; EWS/FLP^−/− cells were plated in 6-well format, allowed to adhere overnight, and treated with (10-5000 nM) dTAG-13 or (50-5000 nM) compound 1 for 24 hrs. Following treatment, cells were lysed in Cell Lysis Buffer (Cell Signaling Technology®) on ice for 60 minutes. Lysates were clarified by centrifugation at 20,000×g for 10 minutes at 4° C. Immunoblotting was performed to determine changes in protein levels upon incubation with the appropriate horseradish peroxidase-conjugated secondary antibodies. The indicated antibodies were employed including HA to monitor FKBP12^F36V-GFP or FKBP12^F36V-EWS/FLI degradation and Vinculin as a loading control.

FKBP12^F36V-EWS/FLI = assay: Immunoblotting of EWS502 FKBP12^F36V-EWS/FLI; EWS/FLI^−/− cells; details: dTAG-13 10-5000 nM, compound 1 50-5000 nM, 24 hrs, EWS502 cells
Procedure: as §4

FKBP12^F36V-KRAS^G12V [8] = assay: Immunoblotting of 293T^WT FKBP12^F36V-KRAS^G12V cells; details: 50 or 500 nM, 24 hrs
Procedure: (§5) 293T^WT or 293T^VHL−/− FKBP12^F36V-KRAS^G12V cells were plated in 6-well format, allowed to adhere overnight, and treated with 50 nM and 500 nM dTAG molecules for 24 hrs. Following treatment, cells were lysed in RIPA buffer on ice for 60 minutes. Lysates were clarified by centrifugation at 20,000×g for 10 minutes at 4° C. Immunoblotting was performed to determine changes in protein levels with an Odyssey CLx Imager. The indicated antibodies were employed including HA to monitor FKBP12^F36V-KRAS^G12V degradation and α-TUBULIN as a loading control.

[9] = tested on: PATU-8902 LACZ-FKBP12^F36V clone; assay: Anti-proliferation via CellTiter-Glo, PATU-8902 LACZ-FKBP12^F36V control clone (Example 12); details: 0.000063-2 μM, 72 hrs
Procedure: as §2, with “Cell Tilter-Glo®” for “CellTilter-Glo®”

FKBP12^F36V-KRAS^G12V [10] = assay: Immunoblotting of 293T^VHL−/− FKBP12^F36V-KRAS^G12V cells; details: 50 or 500 nM, 24 hrs
Procedure: as §5

Compound | anti-proliferative effects on control cells (control NIH/3T3 cells) | anti-proliferative effects / loss of cell viability (% DMSO control) [1] | anti-proliferative effects / loss of cell viability (% DMSO control) [2] | anti-proliferative effects on LACZ-FKBP12^F36V control clone [3] | loss of cell transformation (3D-spheroids, % DMSO control) [4] | pERK levels (immunoblot) (pERK) | pAKT levels (immunoblot) (pAKT) | degradation of LACZ-FKBP12^F36V (immunoblot) (LACZ-FKBP12^F36V) | degradation of FKBP12^F36V-KRAS^G12V (immunoblot) (FKBP12^F36V-KRAS^G12V [5]) | anti-proliferative effects / loss of cell viability (% DMSO control) [6] | effects on cell transformation of LACZ-FKBP12^F36V control clone [7] | degradation of FKBP12^F36V-GFP (immunoblot) (FKBP12^F36V-GFP) | degradation of FKBP12^F36V-EWS/FLI (immunoblot) (FKBP12^F36V-EWS/FLI) | degradation of FKBP12^F36V-KRAS^G12V in 293T^WT cells (immunoblot) (FKBP12^F36V-KRAS^G12V [8]) | anti-proliferative effects on LACZ-FKBP12^F36V control clone [9] | degradation of FKBP12^F36V-KRAS^G12V in 293T^VHL−/− cells (immunoblot) (FKBP12^F36V-KRAS^G12V [10])
CC[C@H](C(=O)N1CCCC[C@H]1C(=O)O[C@H](CCc1ccc(OC)c(OC)c1)c1ccccc1OCC(=O)NCCOCCOCCOCC(=O)N[C@H](C(=O)N1C[C@H](O)C[C@H]1C(=O)NCc1ccc(-c2scnc2C)cc1)C(C)(C)C)c1cc(OC)c(OC)c(OC)c1 [dTAG-12] | Limited anti-proliferative effects | Effective loss of viability; also recorded: potent anti-proliferative effects |  |  |  |  |  |  |  |  |  |  |  |  |  | 
CC[C@H](C(=O)N1CCCC[C@H]1C(=O)O[C@H](CCc1ccc(OC)c(OC)c1)c1ccccc1OCC(=O)NCCOCCOCCOCC(=O)N[C@H](C(=O)N1C[C@H](O)C[C@H]1C(=O)N[C@@H](C)c1ccc(-c2scnc2C)cc1)C(C)(C)C)c1cc(OC)c(OC)c(OC)c1 [dTAG-63] | Limited anti-proliferative effects | Effective loss of viability; also recorded: potent anti-proliferative effects | Effective loss of viability; also recorded: potent anti-proliferative effects | limited effects |  |  |  |  |  |  |  |  |  |  |  | 
CC[C@H](C(=O)N1CCCC[C@H]1C(=O)O[C@H](CCc1ccc(OC)c(OC)c1)c1ccccc1OCC(=O)NCCCCCCC(=O)N[C@H](C(=O)N1C[C@@H](O)C[C@@H]1C(=O)N[C@@H](C)c1ccc(-c2scnc2C)cc1)C(C)(C)C)c1cc(OC)c(OC)c(OC)c1 [Compound 2, (R)-3-(3,4-dimethoxyphenyl)-1-(2-(2-((7-(((S)-1-((2R,4S)-4-hydroxy-2-(((S)-1-(4-(4-methylthiazol-5-yl)phenyl)ethyl)carbamoyl)pyrrolidin-1-yl)-3,3-dimethyl-1-oxobutan-2-yl)amino)-7-oxoheptyl)amino)-2-oxoethoxy)phenyl)propyl (S)-1-((S)-2-(3,4,5-trimethoxyphenyl)butanoyl)piperidine-2-carboxylate] |  |  |  |  | little to no loss of viability; also recorded: limited toxicity at high doses | no effect | no effect | Lack of degradation; also recorded: no effect | Lack of degradation; also recorded: no effect | little to no loss of viability; also recorded: little to no toxicity |  |  |  |  |  | 
CC[C@H](C(=O)N1CCCC[C@H]1C(=O)O[C@H](CCc1ccc(OC)c(OC)c1)c1ccccc1OCC(=O)NCCCCCCOc1cccc2c1C(=O)N(C1CCC(=O)N(C)C1=O)C2=O)c1cc(OC)c(OC)c(OC)c1 (stereo partly drawn) [Compound 5] |  |  |  |  | little to no loss of viability; also recorded: limited toxicity at high doses | no effect | no effect | Lack of degradation; also recorded: no effect | Lack of degradation; also recorded: no effect | little to no loss of viability; also recorded: little to no toxicity |  |  |  |  |  | 
CC[C@H](C(=O)N1CCCC[C@H]1C(=O)O[C@H](CCc1ccc(OC)c(OC)c1)c1ccccc1OCC(=O)NCCCCCCOc1cccc2c1C(=O)N(C1CCC(=O)NC1=O)C2=O)c1cc(OC)c(OC)c(OC)c1 (stereo partly drawn) [dTAG-13, reference compound] |  | Effective loss of viability; also recorded: potent anti-proliferative effects | Effective loss of viability; also recorded: potent anti-proliferative effects | limited effects | Effective loss of viability; also recorded: potent loss of cell transformation | pronounced diminished levels | pronounced diminished levels | rapid degradation; also recorded: potent degradation | potent degradation | Effective loss of viability; also recorded: potent anti-proliferative effects | limited effects | Degradation of GFP (control) is observed; also recorded: potent degradation | not | potent degradation | limited effects | Degradation of mutant KRAS was observed; also recorded: potent degradation
